This note sets out measurements from PMC3583800, “Identification of active Plasmodium falciparum calpain to establish screening system for Pf-calpain-based drug development” (Malaria Journal, 2013).

The target in this test is T1, rPfcal-IIa (Pf-calpain catalytic subdomain IIa) (Plasmodium falciparum, UniProt E5LAD0).
T1 construct: also baculovirus/High Five for the mutation study; monomeric proposed
T1 sequence (E5LAD0 822-1216): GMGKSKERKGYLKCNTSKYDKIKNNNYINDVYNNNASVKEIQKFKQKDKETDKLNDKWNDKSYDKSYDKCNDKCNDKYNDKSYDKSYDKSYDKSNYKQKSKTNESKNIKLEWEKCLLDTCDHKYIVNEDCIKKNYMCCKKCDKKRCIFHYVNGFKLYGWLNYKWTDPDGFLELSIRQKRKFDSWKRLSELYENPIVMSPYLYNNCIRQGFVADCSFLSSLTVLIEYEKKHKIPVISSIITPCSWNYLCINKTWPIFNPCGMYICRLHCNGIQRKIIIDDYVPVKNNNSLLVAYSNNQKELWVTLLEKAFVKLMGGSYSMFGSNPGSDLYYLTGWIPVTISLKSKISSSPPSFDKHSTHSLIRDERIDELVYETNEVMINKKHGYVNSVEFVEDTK
Briefly: fluorogenic Suc-LLVY-AMC assay and gelatin zymography. To be noted: 100 μM inhibitor pre-incubated 1 h at 37°C; 20 μM Suc-LLVY-AMC, 100 mM Tris-HCl pH 7.5, 1 mM DTT. Type of test: biochemical.

Consider `CC(C)C[C@H](NC(=O)[C@@H]1O[C@H]1C(=O)O)C(=O)NCCCCNC(=N)N` [E-64], for which the “inhibition at 100 μM” value was “enzymatic activity of rPfcal-IIa protein was significantly inhibited by ALLN and E-64”.
